Measurements published in paper PMC10666548, “Identification of the bacterial metabolite aerugine as potential trigger of human dopaminergic neurodegeneration” (Environment international, 2023).

What was measured:
[1] = system: Neisseria gonorrhoeae MS11; assay: Bacterial growth assay; format: cell-based; settings: 20 μM, log growth phase
Experimental: Neisseria gonorrhoeae MS11 was cultured in PPM medium (15 g/l Proteose Pepton, 1 g/l soluble starch, 5 g/l NaCl, 4 g/l KH2PO4, 1 g/l K2HPO4, pH 7.5) for liquid culture and on GC plates (BD Difco™ GC Medium Base), both supplemented with 1 % vitamin mix (100 g/l glucose, 10 g/l glutamine, 26 g/l L-cysteine, 100 mg/l carboxylase, 250 mg/l NAD, 500 μl/l Fe(NO3)3, 150 mg/l arginine, 3 mg/l thiamine-HCl, 10 mg/l vitamine B12, 13 mg/l p-amino benzoic acid, 1.1 g/l L-cystine, 1 g/l adenine, 500 mg/l uracil, 30 mg/l guanine). Strains were either cultivated at 37 °C and 220 rpm (liquid medium) or at 37 °C and 5 % CO2 (solid medium).
Bacteria were grown as described above on solid medium. Prior to substance exposure, bacteria were pre-cultured in liquid medium for at least 2 h. Optical density was determined and a volume equal to an OD550 of 0.2 for Neisseria gonorrhoeae MS11 (equates a final OD550 of 0.04) and an OD600 of 0.2 for Enterococcus faecalis (equates a final OD600 of 0.04) was inoculated into 5 ml of the respective liquid medium. Compound was added at the indicated amounts. […] Samples were incubated for either 10.5 h, until they reached a stationary phase (three measured values in stationary phase) or until they reached an OD of 2.5. Optical density was determined every 0.5 h at OD550 for Neisseria gonorrhoeae MS11 and at OD600 for Enterococcus faecalis. […]

HeLa = assay: Cell line viability, resazurin reduction, 72 h; format: cell-based, human; settings: at <100 μM
Experimental: (§1) Hek293FT were acquired from ThermoFisher Scientific (cat. no. R70007). HepG2 were acquired from ATCC (HB-8065). HeLa were acquired from ATCC (CCL-2). The cell culture was performed as described previously ([Dolde et al., 2021]). Briefly, the cell lines were kept in DMEM Glutamax with 10% FCS and 1% penicillin/streptomycin at 37 °C with 5% CO2. They were grown in normal cell culture flasks (Sarstedt) to 75–90% confluence and seeded into standard 96-well plates 24 h prior to compound treatment. The cells were treated by performing a medium change to Advanced DMEM/F12 supplemented with 2 mM L-glutamine containing the indicated compound concentrations.
(§2) The assay was performed as described previously ([Schildknecht et al., 2009]). In brief, cells were stained with 10 μg/ml resazurin and incubated for 30 min at 37 °C and 5% CO2. The fluorescence of resazurin was detected with an excitation wavelength of 530 nm, using a 590 nm long-pass filter to record the emission.
(§3) Fig. 3. Cell type specificity of aerugine cytotoxicity. A Cultures of LUHMES neurons were used on d0 (proliferating, blue), d2 (immature, black) or d6 (mature, red) of differentiation for cytotoxicity testing. Cells were exposed to nine serial dilutions of synthetic aerugine. The cell viability was assessed 24 h later by calcein-AM & H-33342 staining and high content imaging. […] Dotted lines at 4 μM indicate the average EC50 for mature LUHMES. […] They were treated for 72 h with synthetic aerugine. The overall cell viability was assessed by measuring resazurin reduction in technical triplicates. Data are presented as means ± range of two biological replicates (different experiments). C Three iPSC-derived neuronal cell types were treated for 24 h with synthetic aerugine. The cell viability was assessed 24 h later by calcein-AM & H-33342 staining and high content imaging. Data are presented as means ± SEM of three biological replicates (different experiments). D Lack of cytotoxic or bacteriostatic effects of aerugine (20 μM) on exemplary gram-positive and gram-negative microbes: The growth characteristics of Enterococcus faecalis (gram-positive) and Neisseria gonorrhoeae MS11 (gram-negative) were followed during the log growth phase in their respective culture media. Data are from one biological replicate.

HepG2 = assay: Cell line viability, resazurin reduction, 72 h; format: cell-based, human; settings: HepG2, 72 h, at <100 μM
Experimental: as §1, §2, §3

Hek293FT = assay: Cell line viability, resazurin reduction, 72 h; format: cell-based, human; settings: at <100 μM
Experimental: as §1, §2, §3

other neurons = assay: Toxicity for other neurons (abstract summary); format: cell-based; settings: Homo sapiens, Neuron, read-out: half-maximal toxicity for other neurons
[2] = system: Mixed central nervous system neurons (CNS.4U); assay: iPSC-derived neuron viability, calcein-AM & H-33342 imaging; format: cell-based, human; settings: 24 h, at higher concentrations than LUHMES
Experimental: (§4) Commercial preparation of iPSC-derived neurons (Cortex.4U and CNS.4U) were handled and used as described by the manufacturer (nCardia). In brief, plates were coated with 10 μg/ml PLO, 10 μg/ml laminin and 10 μg/ml fibronectin. Cells were thawed and immediately seeded onto 96-well plates in their respective culture media (Cortex.4U: Cortex.4U™ culture medium with Cortex.4U™ supplement; CNS.4U: Neuro.4U Basal Medium [Ax-M-NBM250] with Neuro-Supplement 2 [Ax-M-DCS-DA]) to be used in neurite outgrowth assays.
(§5) The assays were performed as described previously ([Hoelting et al., 2016]; [Klima et al., 2021]; [Krug et al., 2013]). In brief, 30′000 cells per well were seeded on d2 (LUHMES) / d0 (peripheral neurons, Cortex.4U, CNS.4U) in their respective differentiation media into standard pre-coated 96-well plates. They were incubated for 1 h at 37 °C and 5% CO2 before treatment. 24 h after treatment the Calcein/Hoechst readout was performed.
(§6) Neurite area (NA) and viability (V) were assessed as described previously ([Stiegler et al., 2011]). In brief, cells were stained with 1 μM calcein-AM and 1 μg/ml H-33342 for 30 min at 37 °C and 5% CO2. Image acquisition was performed using an Array-Scan VTI HCS Reader (Cellomics, PA, USA) equipped with a Hamamatsu ORCA-ER camera. 10 fields per well were imaged with 2 channels at 20x magnification (2×2 pixel binning). Excitation/emission wavelengths of 365 ± 50/535 ± 45 nm were used for Hoechst detection in channel 1 and 474 ± 40/535 ± 45 nm were used for calcein detection in channel 2.

[3] = system: Cortical neurons (Cortex.4U); assay: as above; format: cell-based, human
Experimental: as §4, §5, §6

OCC1CSC(c2ccccc2O)=N1 (centres unmarked) [aerugine, 2-[4-(hydroxymethyl)-4,5-dihydro-1,3-thiazol-2-yl]phenol]
viability or growth [1]: not affected in viability or growth | toxicity (overall cell viability, resazurin reduction) (HeLa): no toxicity was observed | toxicity (overall cell viability, resazurin reduction) (HeLa; listed as Aerugine): non-toxic | toxicity (overall cell viability, resazurin reduction) (HepG2): no toxicity was observed | toxicity (overall cell viability, resazurin reduction) (HepG2; listed as Aerugine): non-toxic | toxicity (overall cell viability, resazurin reduction) (Hek293FT): no toxicity was observed | toxicity (overall cell viability, resazurin reduction) (Hek293FT; listed as Aerugine): non-toxic | EC50 (other neurons): 10 to 20 µM | effect on cell viability [2]: clearly affected by aerugine | effect on cell viability ([3]; 24 h): sensitive to aerugine | fold higher toxic concentration than for DA neurons (mature LUHMES) ([3]; cortical neurons vs mature LUHMES): about 50 x
